Values joined by “and” are separate entries in the source; they are usually repeats but may differ in a detail not shown here. Equal values may be shown once. A value given as a limit tells only on which side of the number the result lay.

The target of one assay is T1, hGLUT2 (Homo sapiens, UniProt P11168).
T1 construct: expressed in transfected cells; host or cells: HEK293 (HEK293-FLIP, native hGLUT1 knocked down by shRNA)
T1 sequence (P11168 1-524): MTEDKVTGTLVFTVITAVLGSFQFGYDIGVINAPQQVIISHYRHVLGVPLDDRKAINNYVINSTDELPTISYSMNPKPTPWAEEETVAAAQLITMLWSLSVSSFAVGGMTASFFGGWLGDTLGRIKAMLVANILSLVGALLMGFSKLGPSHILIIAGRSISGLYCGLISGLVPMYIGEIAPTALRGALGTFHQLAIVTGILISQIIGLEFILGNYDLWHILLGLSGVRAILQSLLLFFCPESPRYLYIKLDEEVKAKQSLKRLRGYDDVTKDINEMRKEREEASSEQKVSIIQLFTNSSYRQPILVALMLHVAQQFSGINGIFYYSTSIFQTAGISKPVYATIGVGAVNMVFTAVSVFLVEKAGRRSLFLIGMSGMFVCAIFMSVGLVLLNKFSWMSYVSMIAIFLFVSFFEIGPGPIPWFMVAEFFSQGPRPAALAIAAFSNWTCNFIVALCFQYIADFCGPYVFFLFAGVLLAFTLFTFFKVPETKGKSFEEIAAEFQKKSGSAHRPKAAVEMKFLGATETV
Kind of assay: 2-DG uptake by HEK293 cells overexpressing hGLUT2. The class given is cell-based. The following applies: for remaining activity at 0.001 µM: 0.001 µM compound; for remaining activity at 1.25 µM: 1.25 µM compound; for remaining activity at 5 µM / inhibition at 5 µM: 5 μM compound; for remaining activity at 80 µM: 80 µM compound; for remaining activity at 160 µM: 160 µM compound; for IC50: IC50 for inhibition of 2-DG uptake. An excerpt: (§1) Generation of HEK293 cells overexpressing PfHT and human GLUTs 1–4 were described elsewhere. Briefly, HEK293 cells were transfected with pcDNA3.1 FLII12Pglu-7006 (Addgene), containing the fluorescence resonance energy transfer (FRET) glucose sensor (HEK293-FLIP) and PfHT, human GLUT1 (hGLUT1), hGLUT2, hGLUT3, hGLUT4, hGLUT5 or hGLUT8 using Optifect (Life Technologies) according to manufacturer’s specifications. To increase retention of GLUT8 at the plasma membrane, the dileucine sorting signal E^7E^8XXXLL was modified to R^7R^8XXXLL as described in [17]. Stable transfectants were selected for G418 and hygromycin resistance to select for FRET sensor and hexose transporter, respectively. HEK293-FLIP cells were also used to generate cells stably transfected with FLAG-tagged PfHT (FTPfHT). FLAG tag ([…]) followed by a triple glycine linker and a tobacco etch virus (TEV) protease site (ENLYFQS) followed by a triple glycine linker was added to the N-terminus of PfHT via PCR [18] using Phusion Hot Start II High-Fidelity DNA Polymerase (Fisher Scientific). Single clones were selected by comparing their abilities to transport glucose as assayed via FRET and radiolabeled hexose uptake. In all cell lines, except for HEK293 cells overexpressing hGLUT1 and hGLUT5, native hGLUT1 was knocked down using shRNA as described elsewhere. Transcript levels of the individual GLUTs expressed in each cell line are as described in [13, 15] and in S1 Fig.
(§2) Glucose uptake by P. falciparum was performed essentially as described. P. falciparum strain 3D7 was cultured in 100 mm tissue culture dishes (Techno Plastic Products) in a 2% suspension of human erythrocytes and RPMI 1640 medium until reaching > 7.5% parasitemia. Cells were pelleted via centrifugation and resuspended in RPMI 1640 medium. To determine the uptake of radiolabeled glucose into the parasite, parasites were isolated from infected erythrocytes by permeablization with saponin (0.05 w/v), followed by centrifugation, aspiration of supernatant and washing of the pellet 3X with saline solution (135 mM NaCl, 2 mM KCl, 25 mM HEPES, 0.2 mM glucose and 1 mM MgCl2; pH 7.1) to remove cellular debris. WU-1 or DMSO vehicle were added to 100 μl parasites (resuspended in saline) 5 min prior to the addition of 100 μl [^14C]2-DOG (0.2- μCi/ml final concentration). 2-DG uptake was stopped after 2 min by layering the entire reaction over 300 μl of an oil mixture (5:4 mix of dibutyl phthalate / dinonyl phthalate) in Eppendorf tubes and centrifuged at 15,850 × g for 2 mins. The ratio of the estimated intracellular concentration of radiolabel relative to the extracellular concentration were calculated as described. Uptake of radiolabeled hexose into HEK293 cells was measured in glucose-free HBSS as described previously. Briefly, cells were plated at 400,000 cells/well overnight at 37°C in 24-well plates pre-treated with PEI. After 30-min incubation at 37°C in glucose-free HBSS in the presence of vehicle or increasing concentrations of compound, 2-DG uptake was measured in glucose-free HBSS for 4 min at 37°C. Cultures were washed in ice-cold 1X PBS and lysed in 0.1% Triton X-100 in 1X PBS. Radiolabeled hexose uptake was determined by liquid scintillation counting (Ultima Gold, Thermo Fisher) and normalized to total protein per well. Uptake data are plotted as percent uptake relative to vehicle-treated cells. Kinetic analyses were performed using the indicated concentrations of substrate and WU-1, with quenching of uptake after 1 min incubation. Incubation times had been previously determined as being in the linear range of time-dependent radiolabeled hexose uptake (2 min for 2-DG uptake into freed parasites; 2 and 4 min for D-Frc and 2-DG uptake HEK cell lines, respectively). Data were fit by least squares nonlinear regression analysis using GraphPad Prism 6.0 software.

A further assay deals with T2, hGLUT3 (Homo sapiens, UniProt P11169).
T2 construct: expressed in transfected cells; host or cells: HEK293 (HEK293-FLIP, native hGLUT1 knocked down by shRNA)
T2 sequence (P11169 1-496): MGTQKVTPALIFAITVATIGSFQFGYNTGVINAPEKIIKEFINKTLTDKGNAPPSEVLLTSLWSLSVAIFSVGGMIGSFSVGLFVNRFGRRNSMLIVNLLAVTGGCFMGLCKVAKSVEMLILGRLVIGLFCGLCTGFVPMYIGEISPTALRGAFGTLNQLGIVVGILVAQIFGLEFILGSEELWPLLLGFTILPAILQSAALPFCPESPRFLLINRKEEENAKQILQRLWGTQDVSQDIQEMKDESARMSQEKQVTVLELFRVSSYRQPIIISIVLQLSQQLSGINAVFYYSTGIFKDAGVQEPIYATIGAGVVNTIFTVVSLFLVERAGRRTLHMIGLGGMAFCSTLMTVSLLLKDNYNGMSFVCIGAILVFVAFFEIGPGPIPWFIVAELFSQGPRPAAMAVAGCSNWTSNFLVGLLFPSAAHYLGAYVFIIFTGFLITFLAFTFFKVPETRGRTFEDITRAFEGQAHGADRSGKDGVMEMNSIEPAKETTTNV
Kind of assay: 2-DG uptake by HEK293 cells overexpressing hGLUT3. The class given is cell-based. The following applies: for remaining activity at 0.001 µM: 0.001 µM compound; for remaining activity at 5 µM / inhibition at 5 µM: 5 μM compound; for remaining activity at 40 µM: 40 µM compound; for remaining activity at 80 µM: 80 µM compound; for remaining activity at 160 µM: 160 µM compound; for remaining activity at 225 µM: 225 µM compound; for IC50: IC50 for inhibition of 2-DG uptake.
Source text: as §1, §2

Setting [1] is: HEK293, 4 min, GLUT2, read-out: 2-DG uptake (percent uptake relative to vehicle), AVE per experiment.
Setting [2] is: HEK293, 4 min, GLUT2, 2.5 µM compound, read-out: 2-DG uptake (percent uptake relative to vehicle), AVE per experiment.
Setting [3] is: HEK293, 4 min, GLUT2, read-out: % Inhibition of 2-DG uptake vs vehicle.
Setting [4] is: GLUT2 cell line, mean/reported value.
[5] abbreviates: individual experiments, GLUT2, Expt 1-3.
[6] abbreviates: HEK293, 4 min, GLUT3, read-out: 2-DG uptake (percent uptake relative to vehicle), AVE per experiment.
[7] abbreviates: HEK293, 4 min, GLUT3, 2.5 µM compound, read-out: 2-DG uptake (percent uptake relative to vehicle), AVE per experiment.
Where [8] appears, read: HEK293, 4 min, GLUT3, read-out: % Inhibition of 2-DG uptake vs vehicle.
[9] abbreviates: HEK293, 4 min, GLUT3, 10 µM compound, read-out: 2-DG uptake (percent uptake relative to vehicle), AVE per experiment.
Setting [10] is: GLUT3 cell line, mean/reported value.
Setting [11] is: individual experiments, GLUT3, Expt 1-3.

Usually inhibition stands for the change of the read-out against control, counted positive when it falls. As a reminder, the IC50 is the midpoint of a concentration-inhibition curve. Regarding `Cc1ccc(S(=O)(=O)CCNC(=O)c2c(-c3c(Cl)cccc3Cl)noc2C)cc1` [WU-1, 3-(2,6-dichlorophenyl)-5-methyl-N-[2-(4-methylbenzenesulfonyl)ethyl]-1,2-oxazole-4-carboxamide], the “IC50 for inhibition of 2-DG uptake, individual experiments” value was “ambiguous” against hGLUT2 (GLUT2, Expt 1-3) and “ambiguous” at hGLUT3 (GLUT3, Expt 1-3). In addition, the remaining activity at 0.001 µM on hGLUT2 (setting [1]) and at hGLUT3 (setting [6]) was 100% each time. For the same compound, the remaining activity at 1.25 µM at hGLUT2 (setting [1]) turned out to be 108%; on hGLUT3 (HEK293, 4 min, GLUT3, 1.25 µM compound, read-out: 2-DG uptake (percent uptake relative to vehicle), AVE per experiment), 110%. For the same compound, the remaining activity at 2.5 µM was found to be 110% on hGLUT2 (setting [2]) and 103% at hGLUT3 (setting [7]). Moreover, the remaining activity at 5 µM at hGLUT2 (setting [1]) was found to be 83%; at hGLUT3 (setting [6]) it was 99.5%. Moreover, the inhibition at 5 µM on hGLUT2 (setting [3]) is about 10%; on hGLUT3 (setting [8]), 0.48%. In addition, the remaining activity at 80 µM at hGLUT2 (setting [1]) was 73.8%; on hGLUT3 (setting [6]), 76.4%. In addition, the remaining activity at 160 µM came to 54.5% at hGLUT2 (setting [1]) and 80% on hGLUT3 (setting [6]). Further, the half-maximal inhibitory concentration (IC50) against hGLUT2 (setting [4]) was over 50 µM; at hGLUT2 (setting [5]), 52.4 µM; against hGLUT3 (setting [10]), over 100 µM; against hGLUT3 (setting [11]), over 225 µM. In addition, the remaining activity at 10 µM at hGLUT3 (setting [9]) came to 103%. At hGLUT3 (HEK293, 4 min, GLUT3, 20 µM compound, read-out: 2-DG uptake (percent uptake relative to vehicle), AVE per experiment), the remaining activity at 20 µM is 102%. Besides, the remaining activity at 40 µM on hGLUT3 (setting [6]) turned out to be 82.5%. In addition, the remaining activity at 225 µM at hGLUT3 (setting [6]) turned out to be 75.3%.

With `COc1c(Br)cc([N+](=O)[O-])c(OC)c1C(=O)NC(=O)Nc1c(C)cccc1Cl` [WU-2, 3-(3-bromo-2,6-dimethoxy-5-nitrobenzoyl)-1-(2-chloro-6-methylphenyl)urea], on hGLUT2 (2-DG uptake, GLUT2 cell line), the “Maximum Inhibition (%)” value was 62.0%. Besides, the remaining activity at 0.001 µM on hGLUT2 (setting [1]) and at hGLUT3 (setting [6]) was 100% each time. For the same compound, the remaining activity at 1.25 µM at hGLUT2 (setting [1]) was determined as 102%. Moreover, the remaining activity at 2.5 µM on hGLUT2 (setting [2]) was 83.6%; at hGLUT3 (setting [7]), 92.9%. The results for the remaining activity at 5 µM at hGLUT2 (setting [1]) and at hGLUT3 (setting [6]) were 74.5% and 92.4%, respectively. The inhibition at 5 µM at hGLUT2 (setting [3]) and at hGLUT3 (setting [8]) was 10 to 12% throughout. The remaining activity at 10 µM on hGLUT2 (HEK293, 4 min, GLUT2, 10 µM compound, read-out: 2-DG uptake (percent uptake relative to vehicle), AVE per experiment) was 62.8%; on hGLUT3 (setting [9]) it was 95.1%. In addition, the remaining activity at 20 µM on hGLUT2 (HEK293, 4 min, GLUT2, 20 µM compound, read-out: 2-DG uptake (percent uptake relative to vehicle), AVE per experiment) worked out at 64%. In addition, the remaining activity at 40 µM on hGLUT2 (HEK293, 4 min, GLUT2, 40 µM compound, read-out: 2-DG uptake (percent uptake relative to vehicle), AVE per experiment) turned out to be 39.5%; on hGLUT3 (setting [6]) it was 91.7%. Besides, the remaining activity at 80 µM on hGLUT2 (setting [1]) turned out to be 35.2%; on hGLUT3 (setting [6]) it was 81.9%. The remaining activity at 160 µM at hGLUT2 (setting [1]) turned out to be 42.1%; at hGLUT3 (setting [6]), 68.7%. Moreover, the remaining activity at 225 µM on hGLUT2 (HEK293, 4 min, GLUT2, 225 µM compound, read-out: 2-DG uptake (percent uptake relative to vehicle), AVE per experiment) stood at 30.9%; on hGLUT3 (setting [6]), 77.5%. Moreover, the half-inhibitory concentration (IC50) at hGLUT2 (setting [4]) is 15.9 ± 2.5 µM; against hGLUT2 (setting [5]), 14.1 µM and 20.8 µM and 12.9 µM; against hGLUT3 (setting [10]), over 50 µM; against hGLUT3 (setting [11]), 103 µM and 61.6 µM and 11.4 µM.

For the compound `COc1cc(/C=N/NC(=O)c2cc(-c3ccccc3)sc2N)cc(OC)c1OC` [WU-3, 2-amino-5-phenyl-N'-[(E)-(3,4,5-trimethoxyphenyl)methylidene]thiophene-3-carbohydrazide], the inhibition at 10 µM on hGLUT3 (HEK293, 4 min, GLUT3, 10 µM compound, read-out: % Inhibition of 2-DG uptake vs vehicle) was at least 50%.

In the case of `COc1cc(/C=C2\COC/C(=C\c3cc(OC)c(OC)c(OC)c3)C2=O)cc(OC)c1OC` [WU-5, (3E,5E)-3,5-bis[(3,4,5-trimethoxyphenyl)methylidene]oxan-4-one], the inhibition at 2.5 µM at hGLUT2 (HEK293, 4 min, GLUT2, 2.5 µM compound, read-out: % Inhibition of 2-DG uptake vs vehicle) is about 70%; on hGLUT3 (HEK293, 4 min, GLUT3, 2.5 µM compound, read-out: % Inhibition of 2-DG uptake vs vehicle), about 20%.

For the origin of these results see publication PMC6508677, “Identification of druggable small molecule antagonists of the Plasmodium falciparum hexose transporter PfHT and assessment of ligand access to the glucose permeation pathway via FLAG-mediated protein engineering” (PLoS ONE, 2019).
